Source: patent US20250361230A1, “LATS Inhibitors and Uses Thereof” (The USA, as Represented by the Secretary, Dept. of Heath …, priority 2022, published 2025)
pIC50: −log10 of the molar value.

Columns and labels:
Assay type in all cases: biochemical
[1] = target: AKT (Homo sapiens, UniProt P31749); test: RBC HotSpot kinase assay (33P-ATP, P81 filter-binding), AKT; settings: Table 28, biochemical kinase assay; read-out: AKT IC50
Procedure, shortened: (§1)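 Hepes pH 7.5/MgCl2/EGTA/Brij35/BSA/Na3VO4/DTT buffer, cofactors per kinase; cpd acoustically dispensed, 20 min preinc RT; start w/ 33P-ATP, 2 h RT; P81 filter readout; 10-pt singlet IC50.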

[2] = target: T1, LATS2 (Homo sapiens, UniProt Q9NRM7); test: RBC HotSpot kinase assay (33P-ATP, P81 filter-binding), LATS2; settings: Table 28, biochemical kinase assay; read-out: LATS2 IC50
T1 sequence (Q9NRM7 1-1088): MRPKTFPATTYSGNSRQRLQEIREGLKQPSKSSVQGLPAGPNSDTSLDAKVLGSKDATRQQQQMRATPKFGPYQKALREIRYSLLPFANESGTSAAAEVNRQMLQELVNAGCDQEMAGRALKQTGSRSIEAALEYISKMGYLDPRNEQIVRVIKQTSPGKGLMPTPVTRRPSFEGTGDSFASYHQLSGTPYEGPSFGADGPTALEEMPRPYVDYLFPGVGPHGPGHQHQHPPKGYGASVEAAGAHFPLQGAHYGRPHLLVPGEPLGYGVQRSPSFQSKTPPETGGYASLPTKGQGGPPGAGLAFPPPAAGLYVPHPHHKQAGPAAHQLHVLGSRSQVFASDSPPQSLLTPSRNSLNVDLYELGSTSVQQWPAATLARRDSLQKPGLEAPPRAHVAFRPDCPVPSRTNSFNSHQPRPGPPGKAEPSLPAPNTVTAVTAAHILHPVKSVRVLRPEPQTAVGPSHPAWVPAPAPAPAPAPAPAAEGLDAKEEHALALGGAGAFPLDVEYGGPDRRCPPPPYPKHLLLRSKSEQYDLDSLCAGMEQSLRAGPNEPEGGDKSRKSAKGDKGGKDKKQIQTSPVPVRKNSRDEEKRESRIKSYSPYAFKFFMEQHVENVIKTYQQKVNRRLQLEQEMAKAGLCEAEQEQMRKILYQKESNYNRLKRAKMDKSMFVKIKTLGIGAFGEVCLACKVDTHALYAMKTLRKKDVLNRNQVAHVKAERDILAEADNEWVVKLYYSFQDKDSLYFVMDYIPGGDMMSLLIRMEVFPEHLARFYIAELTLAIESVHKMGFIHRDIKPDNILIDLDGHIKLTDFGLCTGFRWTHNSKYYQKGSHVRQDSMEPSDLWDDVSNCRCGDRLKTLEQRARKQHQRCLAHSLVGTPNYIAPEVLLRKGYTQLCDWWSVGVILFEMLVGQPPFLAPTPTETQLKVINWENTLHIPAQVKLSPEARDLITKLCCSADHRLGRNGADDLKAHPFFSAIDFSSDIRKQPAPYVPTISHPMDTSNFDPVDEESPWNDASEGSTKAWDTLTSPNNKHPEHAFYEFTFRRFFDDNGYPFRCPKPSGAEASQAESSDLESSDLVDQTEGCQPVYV
Procedure, shortened: as §1

[3] = target: T2, LATS1 (Homo sapiens, UniProt O95835); test: RBC HotSpot kinase assay (33P-ATP, P81 filter-binding), LATS1; settings: Table 28, biochemical kinase assay; read-out: LATS1 IC50
T2 sequence (O95835 1-1130): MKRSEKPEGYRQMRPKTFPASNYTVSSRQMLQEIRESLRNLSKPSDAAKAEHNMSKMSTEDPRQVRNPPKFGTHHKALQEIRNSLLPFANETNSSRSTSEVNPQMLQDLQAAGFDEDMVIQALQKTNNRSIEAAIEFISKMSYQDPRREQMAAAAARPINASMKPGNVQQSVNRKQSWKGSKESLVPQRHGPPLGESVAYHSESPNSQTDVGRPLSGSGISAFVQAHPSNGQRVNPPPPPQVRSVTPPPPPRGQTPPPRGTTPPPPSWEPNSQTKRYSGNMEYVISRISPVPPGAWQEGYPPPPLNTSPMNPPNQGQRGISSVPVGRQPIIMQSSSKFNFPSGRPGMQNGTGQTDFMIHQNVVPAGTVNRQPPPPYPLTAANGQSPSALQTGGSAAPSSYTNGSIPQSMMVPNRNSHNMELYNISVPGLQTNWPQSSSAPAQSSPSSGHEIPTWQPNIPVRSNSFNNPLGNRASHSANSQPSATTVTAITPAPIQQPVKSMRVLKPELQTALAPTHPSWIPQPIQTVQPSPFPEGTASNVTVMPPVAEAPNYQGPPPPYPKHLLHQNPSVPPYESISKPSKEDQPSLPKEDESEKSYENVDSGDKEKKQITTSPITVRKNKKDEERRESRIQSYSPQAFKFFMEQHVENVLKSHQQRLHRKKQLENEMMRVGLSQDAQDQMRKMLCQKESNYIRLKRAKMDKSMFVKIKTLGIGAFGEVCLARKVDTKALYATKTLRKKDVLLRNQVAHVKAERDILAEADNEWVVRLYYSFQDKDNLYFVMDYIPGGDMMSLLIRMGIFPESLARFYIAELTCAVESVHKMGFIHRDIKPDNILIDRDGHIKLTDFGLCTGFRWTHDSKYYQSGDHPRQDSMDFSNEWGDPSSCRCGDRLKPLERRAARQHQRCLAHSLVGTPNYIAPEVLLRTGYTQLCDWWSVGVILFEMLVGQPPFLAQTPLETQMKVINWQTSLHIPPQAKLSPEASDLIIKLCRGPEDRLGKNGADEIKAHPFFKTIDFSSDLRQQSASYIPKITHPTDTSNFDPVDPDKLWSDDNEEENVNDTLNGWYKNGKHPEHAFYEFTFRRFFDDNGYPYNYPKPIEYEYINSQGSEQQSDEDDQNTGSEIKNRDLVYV
Procedure, shortened: as §1

Sequence of AKT (P31749 whole entry): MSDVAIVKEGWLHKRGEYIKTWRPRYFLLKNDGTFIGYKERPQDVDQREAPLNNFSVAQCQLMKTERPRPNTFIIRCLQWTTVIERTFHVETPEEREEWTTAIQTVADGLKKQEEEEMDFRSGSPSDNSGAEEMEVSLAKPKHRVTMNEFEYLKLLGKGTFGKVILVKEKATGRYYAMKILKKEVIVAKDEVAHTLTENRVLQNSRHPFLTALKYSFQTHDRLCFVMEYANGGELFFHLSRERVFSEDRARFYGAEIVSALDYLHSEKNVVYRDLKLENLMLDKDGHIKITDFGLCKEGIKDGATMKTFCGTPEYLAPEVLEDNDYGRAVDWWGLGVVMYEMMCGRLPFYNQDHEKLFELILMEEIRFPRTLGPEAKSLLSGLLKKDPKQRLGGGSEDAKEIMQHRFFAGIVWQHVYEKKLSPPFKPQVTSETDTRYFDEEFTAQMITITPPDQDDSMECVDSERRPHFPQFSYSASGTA

| Structure (SMILES) | pIC50 [1] | pIC50 [2] | pIC50 [3] |
| --- | --- | --- | --- |
| NCc1ccc(-c2ccnc3[nH]cc(Cl)c23)cc1-c1ccccc1 [Compound 234, (5-(3-chloro-1H-pyrrolo[2,3-b]pyridin-4-yl)-[1,1′-biphenyl]-2-yl)methanamine] | 7.16 | 7.62 | 8.19 |
| CCC(CC)Nc1cc(-c2ccnc3[nH]ccc23)ccc1CN [Compound 235, 2-(aminomethyl)-N-(pentan-3-yl)-5-(1H-pyrrolo[2,3-b]pyridin-4-yl)aniline] | 6.10 | 6.43 | 6.39 |
| CCN(CC)c1cc(-c2ccnc3[nH]ccc23)ccc1CNC(C)=O [Compound 236, N-(2-(diethylamino)-4-(1H-pyrrolo[2,3-b]pyridin-4-yl)benzyl)acetamide] | 5.44 | 6.05 | 6.11 |
| CCN(CC)c1cc(-c2ccnc3[nH]ccc23)ccc1CN [Compound 237, 2-(aminomethyl)-N,N-diethyl-5-(1H-pyrrolo[2,3-b]pyridin-4-yl)aniline] | 7.00 | 7.64 | 7.92 |
| NCc1ccc(-c2ccnc3[nH]cc(-c4ccc(F)cc4)c23)cc1 [Compound 243, (4-(3-(4-fluorophenyl)-1H-pyrrolo[2,3-b]pyridin-4-yl)phenyl) methanamine] | 5.63 | 7.62 | 7.14 |
| CC(C)(O)C#Cc1cc(-c2ccnc3[nH]ccc23)ccc1CN [Compound 244, 4-(2-(aminomethyl)-5-(1H-pyrrolo[2,3-b]pyridin-4-yl)phenyl)-2-methylbut-3-yn-2-ol] | 5.90 | 7.55 | 7.70 |
| NCc1ccc(-c2ccnc3[nH]ccc23)cc1-c1ccccc1 [Compound 246, (5-(1H-pyrrolo[2,3-b]pyridin-4-yl)-[1,1′-biphenyl]-2-yl)methanamine] | 6.42 | 7.70 | 7.82 |
| NCc1ccc(-c2ccnc3[nH]cc(-c4ccccc4F)c23)cc1 [Compound 248, (4-(3-(2-fluorophenyl)-1H-pyrrolo[2,3-b]pyridin-4-yl)phenyl) methanamine] | 5.55 | 8.00 | 7.30 |
| NCc1ccc(-c2ccnc3[nH]cc(Cl)c23)cc1Cl [Compound 249, (2-chloro-4-(3-chloro-1H-pyrrolo[2,3-b]pyridin-4-yl)phenyl) methanamine] | 6.66 | 8.10 | 8.08 |
| Cc1cc(-c2ccnc3[nH]ccc23)cnc1CN [Compound 252, (3-methyl-5-(1H-pyrrolo[2,3-b]pyridin-4-yl)pyridin-2-yl)methanamine] | 5.50 | 7.92 | 8.09 |
| O=C1NCc2cc(-c3ccnc4[nH]ccc34)ccc21 [Compound 258, 5-(1H-pyrrolo[2,3-b]pyridin-4-yl)isoindolin-1-one] | < 5.00 | 7.19 | 6.64 |
| O=C1NCc2ccc(-c3ccnc4[nH]ccc34)cc21 [Compound 259, 6-(1H-pyrrolo[2,3-b]pyridin-4-yl)isoindolin-1-one] | < 5.00 | 6.60 | 6.96 |
| O=C1NCCc2cc(-c3ccnc4[nH]ccc34)ccc21 [Compound 260, 6-(1H-pyrrolo[2,3-b]pyridin-4-yl)-3,4-dihydroisoquinol in-1(2H)-one] | 5.18 | 7.28 | 7.06 |
| NCc1ccc(-c2cc(-c3ccncc3)nc3[nH]ccc23)cc1 [Compound 261, (4-(6-(pyridin-4-yl)-1H-pyrrolo[2,3-b]pyridin-4-yl)phenyl) methanamine] | 5.05 | 8.00 | 7.47 |
| NC(=O)c1ccc(-c2ccnc3[nH]ccc23)cc1 [Compound 264, 4-(1H-pyrrolo[2,3-b]pyridin-4-yl)benzamide] | < 5.00 | 6.68 | 6.46 |

Now from value to compound:

| pIC50 [1] | pIC50 [2] | pIC50 [3] | Structure (SMILES) |
| --- | --- | --- | --- |
| 5.88 | 7.59 | 7.17 | COc1ccc(-c2c[nH]c3nccc(-c4ccc(CN)cc4)c23)cc1 [Compound 239, (4-(3-(4-methoxyphenyl)-1H-pyrrolo[2,3-b]pyridin-4-yl)phenyl) methanamine] |
| 6.75 | 7.47 | 8.37 | C=C(C)c1cc(-c2ccnc3[nH]ccc23)ccc1CN [Compound 240, (2-(prop-1-en-2-yl)-4-(1H-pyrrolo[2,3-b]pyridin-4-yl)phenyl) methanamine] |
| 6.09 | 8.22 | 7.72 | C=C(C)c1c[nH]c2nccc(-c3ccc(CN)cc3)c12 [Compound 241, (4-(3-(prop-1-en-2-yl)-1H-pyrrolo[2,3-b]pyridin-4-yl)phenyl) methanamine] |
| 5.88 | 8.00 | 7.96 | COc1ccccc1-c1c[nH]c2nccc(-c3ccc(CN)cc3)c12 [Compound 242, (4-(3-(2-methoxyphenyl)-1H-pyrrolo[2,3-b]pyridin-4-yl)phenyl) methanamine] |
| 5.85 | 7.96 | 7.68 | NCc1ccc(-c2ccnc3[nH]cc(-c4cccc(F)c4)c23)cc1 [Compound 247, (4-(3-(3-fluorophenyl)-1H-pyrrolo[2,3-b]pyridin-4-yl)phenyl) methanamine] |
| < 5.00 | 6.41 | 6.05 | Cc1cc2c(-c3ccc(CN)cc3)ccnc2[nH]1 [Compound 251, (4-(2-methyl-1H-pyrrolo[2,3-b]pyridin-4-yl)phenyl) methanamine] |
| < 5.00 | 5.37 | 5.05 | Cc1cc(-c2ccc(CN)cc2)c2cc[nH]c2n1 [Compound 256, (4-(6-methyl-1H-pyrrolo[2,3-b]pyridin-4-yl)phenyl) methanamine] |
| 6.20 | 7.92 | 7.89 | Cc1c[nH]c2nccc(-c3ccc(CN)cc3)c12 [Compound 257, (4-(3-methyl-1H-pyrrolo[2,3-b]pyridin-4-yl)phenyl) methanamine] |
| < 5.00 | 5.35 | < 5.00 | NCc1ccc(-c2cc(Cl)nc3[nH]ccc23)cc1 [Compound 262, (4-(6-chloro-1H-pyrrolo[2,3-b]pyridin-4-yl)phenyl) methanamine] |
| 5.92 | 7.14 | 7.47 | NCc1ccc(-c2ccnc3[nH]ccc23)c(F)c1 [Compound 263, (3-fluoro-4-(1H-pyrrolo[2,3-b]pyridin-4-yl)phenyl) methanamine] |
